One series has as its target T1, EGF-R (HER-1) (Homo sapiens, UniProt P00533).
T1 construct: using the recombinant intracellular domain of the EGF-receptor [EGF-R ICD
Kind of series: Inhibition of EGF-R (HER-1) tyrosine kinase activity. The following applies: recombinant intracellular domain of the EGF-receptor. It is filed as biochemical. The method, then:
J. Biochem. 207, 265-275 (1992)]. Compared with the control without inhibitor, the compounds of formula I inhibit the enzyme activity by 50% (IC50), for example in a concentration of from 0.0005 to 0.5 μM, especially from 0.001 to 0.1 μM.
(§1) Inhibition of the tyrosine kinase Activity of EGF-R (HER-1), ErbB-2 (HER-2) and VEGF Receptor (KDR)
(§2) The inhibition tests are carried out as described above.

In another series the target is T2, VEGF Receptor (KDR) (Homo sapiens, UniProt P35968).
T2 construct: as in the cited Wood et al. 2000 method
T2 sequence (P35968 834-1162 limits assumed): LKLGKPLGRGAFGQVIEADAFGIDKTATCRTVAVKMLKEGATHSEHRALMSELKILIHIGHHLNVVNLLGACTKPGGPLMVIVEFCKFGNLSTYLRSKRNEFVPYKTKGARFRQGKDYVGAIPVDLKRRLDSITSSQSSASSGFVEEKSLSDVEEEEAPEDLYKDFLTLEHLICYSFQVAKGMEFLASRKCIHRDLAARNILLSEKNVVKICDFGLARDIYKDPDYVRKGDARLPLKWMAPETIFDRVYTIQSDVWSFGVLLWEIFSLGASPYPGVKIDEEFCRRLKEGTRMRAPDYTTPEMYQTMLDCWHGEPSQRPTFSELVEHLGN
Nature of the series: Inhibition of VEGF receptor (KDR) tyrosine kinase activity. It is filed as biochemical. The method, then:
The compounds of the present invention are therefore very effective dual inhibitors of EGF- and VEGF-receptor family members. For inhibition of KDR and Flt-1 and inhibition of growth factor-induced proliferation of HUVECS see J. Wood et al., Cancer Res. 60, 2178-2189 (2000). The compounds of formula I inhibit e.g. the KDR tyrosine kinase activity with an IC50 of from about 1 nM to about 1 μM, especially from about 5 nM to about 0.5 μM.
as §1, §2

In a further series the target is ErbB-2 (HER-2) (Homo sapiens, UniProt P04626). Nature of the series: Inhibition of ErbB-2 (HER-2) tyrosine kinase activity. It is filed as biochemical. The method, then: The inhibitory activity (IC50) is approximately in the range of 0.001 to 0.5 μM. The inhibition of ErbB2 tyrosine kinase (HER-2) can be determined, for example, analogously to the method used for EGF-R protein tyrosine kinase [see C. House et al., Europ. J. Biochem. 140. 363-367 (1984)]. The ErbB-2 kinase can be isolated, and its activity determined, by means of protocols known per se, for example in accordance with T. Akiyama et al., Science 232 1644 (1986).
Sequence of ErbB-2 (HER-2) (P04626 23-1255): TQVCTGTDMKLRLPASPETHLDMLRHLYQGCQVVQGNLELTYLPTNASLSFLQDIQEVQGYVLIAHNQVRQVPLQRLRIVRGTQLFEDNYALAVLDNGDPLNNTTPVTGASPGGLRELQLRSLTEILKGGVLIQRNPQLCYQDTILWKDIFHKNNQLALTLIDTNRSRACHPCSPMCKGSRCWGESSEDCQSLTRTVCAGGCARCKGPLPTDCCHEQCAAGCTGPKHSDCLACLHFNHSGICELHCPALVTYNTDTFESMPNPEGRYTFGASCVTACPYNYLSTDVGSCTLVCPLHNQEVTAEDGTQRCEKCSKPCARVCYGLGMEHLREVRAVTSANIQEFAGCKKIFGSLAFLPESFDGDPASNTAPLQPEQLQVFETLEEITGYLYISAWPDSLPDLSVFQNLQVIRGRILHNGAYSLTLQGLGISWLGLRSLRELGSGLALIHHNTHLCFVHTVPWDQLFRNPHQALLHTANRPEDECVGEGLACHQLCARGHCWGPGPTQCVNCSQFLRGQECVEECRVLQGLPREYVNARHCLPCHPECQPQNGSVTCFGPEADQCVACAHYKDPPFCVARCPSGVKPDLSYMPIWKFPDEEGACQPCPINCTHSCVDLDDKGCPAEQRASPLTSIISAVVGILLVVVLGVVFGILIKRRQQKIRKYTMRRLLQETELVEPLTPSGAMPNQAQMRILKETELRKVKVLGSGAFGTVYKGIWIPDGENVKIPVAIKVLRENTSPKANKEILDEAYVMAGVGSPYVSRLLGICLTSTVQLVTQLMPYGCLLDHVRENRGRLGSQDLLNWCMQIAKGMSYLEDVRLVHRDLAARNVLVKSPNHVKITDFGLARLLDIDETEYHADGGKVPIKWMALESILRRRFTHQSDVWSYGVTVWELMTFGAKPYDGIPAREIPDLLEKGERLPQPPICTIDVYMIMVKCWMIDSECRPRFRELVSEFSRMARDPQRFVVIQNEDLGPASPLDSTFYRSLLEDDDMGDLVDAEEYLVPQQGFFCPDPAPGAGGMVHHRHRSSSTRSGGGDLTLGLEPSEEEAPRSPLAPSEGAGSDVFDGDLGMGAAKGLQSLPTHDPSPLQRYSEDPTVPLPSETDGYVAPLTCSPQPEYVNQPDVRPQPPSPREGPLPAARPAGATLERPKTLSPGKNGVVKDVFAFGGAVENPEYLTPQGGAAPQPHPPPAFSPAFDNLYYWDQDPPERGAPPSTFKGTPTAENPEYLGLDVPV
as §1, §2

The pIC50 is the negative decadic logarithm of the IC50, by convention in mol/L. The term melting point denotes the temperature of the solid-liquid transition.

pIC50: −log10 of the molar value.

T1 sequence (P00533 669-1210 limits assumed): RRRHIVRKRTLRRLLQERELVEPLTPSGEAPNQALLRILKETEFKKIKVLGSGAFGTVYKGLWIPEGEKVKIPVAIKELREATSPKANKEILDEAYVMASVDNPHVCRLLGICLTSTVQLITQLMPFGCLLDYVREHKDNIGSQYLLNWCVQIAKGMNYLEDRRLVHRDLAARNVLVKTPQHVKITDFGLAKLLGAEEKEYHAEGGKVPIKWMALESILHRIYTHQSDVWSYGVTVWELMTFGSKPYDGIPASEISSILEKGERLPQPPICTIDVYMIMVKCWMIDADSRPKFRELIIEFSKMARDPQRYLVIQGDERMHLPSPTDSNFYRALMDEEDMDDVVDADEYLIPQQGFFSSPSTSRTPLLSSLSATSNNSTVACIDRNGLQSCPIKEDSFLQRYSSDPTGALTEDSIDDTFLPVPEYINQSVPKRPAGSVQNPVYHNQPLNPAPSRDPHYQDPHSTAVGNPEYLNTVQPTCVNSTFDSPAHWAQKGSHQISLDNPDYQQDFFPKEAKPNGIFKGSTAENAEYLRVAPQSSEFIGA

In turn, `Cc1ccc(-c2n[nH]cc2-c2ccnc(Nc3ccc(CN4CCN(C)CC4)cc3)n2)cc1` [Example 60, [4-(4-Methyl-piperazin-1-ylmethyl)-phenyl]-[4-(3-p-tolyl-1H-pyrazol-4-yl)-pyrimidin-2-yl]-amine] displayed a melting point of 250 °C. Besides, the negative-log IC50 (pIC50) at EGF-R (HER-1) is 7.70. The molecule further had a pIC50 on VEGF Receptor (KDR) of 8.00. On ErbB-2 (HER-2), the pIC50 is 7.36.
The molecule `Clc1ccc(-c2n[nH]cc2-c2ccnc(Nc3ccc(-c4nnn[nH]4)cc3)n2)cc1` [Example 116, {4-[3-(4-Chloro-phenyl)-1H-pyrazol-4-yl]-pyrimidin-2-yl}-[4-(1H-tetrazol-5-yl)-phenyl]-amine] showed a melting point of 369 °C. For the same molecule, the negative-log IC50 (pIC50) at EGF-R (HER-1) is 8.05. The negative-log IC50 (pIC50) at VEGF Receptor (KDR) was 7.68. This molecule also had a negative-log IC50 (pIC50) on ErbB-2 (HER-2) of over 8.00.
Consider `CN(C)CCOc1ccc(Nc2nccc(-c3c[nH]nc3-c3ccc(Cl)c(Cl)c3)n2)cc1` [Example 21, {4-[3-(3,4-Dichloro-phenyl)-1H-pyrazol-4-yl]-pyrimidin-2-yl}-[4-(2-dimethylamino-ethoxy)-phenyl]-amine], for which the figures for the pIC50 at EGF-R (HER-1), against VEGF Receptor (KDR) and against ErbB-2 (HER-2) were 7.54, 7.82 and 7.80, respectively.
Taken in the same sequence, the figures for `CCN1CCN(Cc2ccc(Nc3nccc(-c4c[nH]nc4-c4ccc(C)cc4)n3)cc2)CC1` [Example 101, [4-(4-Ethyl-piperazin-1-ylmethyl)-phenyl]-[4-(3-p-tolyl-1H-pyrazol-4)-pyrimidin-2-yl]-amine] were 7.89, 8.40 and 7.55.
Take `CN1CCN(c2ccc(Nc3nccc(-c4cn(C)nc4-c4ccc(Cl)cc4)n3)cc2)CC1` [Example 91, {4-[3-(4-Chloro-phenyl)1-methyl-1H-pyrazol-4yl]-pyrimidin-2-yl}-[4-(4-methyl-piperazin-1-yl)-phenyl]-amine]: the pIC50 at EGF-R (HER-1) was 7.74; on VEGF Receptor (KDR), 7.55; against ErbB-2 (HER-2) it was 7.38.
Molecule `CN1CCN(c2ccc(Nc3nccc(-c4c[nH]nc4-c4ccc(Cl)cc4)n3)cc2)CC1` [Example 1, {4-[3-(4-Chloro-phenyl)1H-pyrazol-4yl]-pyrimidin-2-yl}-[4-(4-methyl-piperazin-1-yl)-phenyl]-amine] came in with a melting point of 282 to 284 °C. For the same molecule, the negative logarithm of the IC50 (pIC50) on EGF-R (HER-1) is 7.74. Also, the pIC50 at VEGF Receptor (KDR) is 8.00. This molecule also had a pIC50 against ErbB-2 (HER-2) of 7.64.
`Cc1cccc(-c2n[nH]cc2-c2ccnc(Nc3ccc(OCCN(C)C)cc3)n2)c1` [Example 20, [4-(2-Dimethylamino-ethoxy)-phenyl]-[4-(3-m-tolyl-1H-pyrazol-4-yl)-pyrimidin-2-yl]-amine]: the figures for the negative logarithm of the IC50 (pIC50) on EGF-R (HER-1), at VEGF Receptor (KDR) and at ErbB-2 (HER-2) were 7.57, 8.22 and 7.82, respectively.
Consider `Cc1cccc(-c2n[nH]cc2-c2ccnc(Nc3ccc(N4CCN(C)CC4)cc3)n2)c1` [Example 18, [4-(4-Methyl-piperazin-1yl)-phenyl]-[4-(3-m-tolyl-1H-pyrazol-4-yl)-pyrimidin-2-yl]-amine], for which the figures for the negative logarithm of the IC50 (pIC50) on EGF-R (HER-1), on VEGF Receptor (KDR) and against ErbB-2 (HER-2) were 7.68, 8.40 and 7.89, respectively.
In the same order, the values of `COc1cc(Nc2nccc(-c3c[nH]nc3-c3ccc4c(c3)OCO4)n2)cc(OC)c1OC` [Example 46, [4-(3-Benzo[1,3]dioxol-5-yl-1H-pyrazol-4-yl)-pyrimidin-2-yl]-(3,4,5-trimethoxy-phenyl)-amine] are 7.55, 8.52 and 8.22.
As to `CCN1CCN(c2ccc(Nc3nccc(-c4c[nH]nc4-c4ccc(C)cc4)n3)cc2)CC1` [Example 109, [4-(4-Ethyl-piperazin-1-yl)-phenyl]-[4-(3-p-tolyl-1H-pyrazol-4yl)-pyrimidin-2-yl]-amine], the melting point was 280 °C. Moreover, the negative-log IC50 (pIC50) at EGF-R (HER-1) is 7.80. The molecule further gave a negative logarithm of the IC50 (pIC50) against VEGF Receptor (KDR) of 8.52. On ErbB-2 (HER-2), this molecule had a pIC50 of 7.47.
With `Cc1ccc(-c2n[nH]cc2-c2ccnc(Nc3cccc(OCC4CCN(C)CC4)c3)n2)cc1` [Example 124, [3-(1-Methyl-piperidin-4-ylmethoxy)-phenyl]-[4-(3-p-tolyl-1H-pyrazol-4yl)-pyrimidin-2-yl]-amine], the values for the negative logarithm of the IC50 (pIC50) on EGF-R (HER-1), at VEGF Receptor (KDR) and against ErbB-2 (HER-2) were 8.52, 8.30 and 7.77, respectively.
`CN(C)CCOc1ccc(Nc2nccc(-c3c[nH]nc3-c3ccc(Cl)cc3)n2)cc1` [Example 2, {4-[3-(4-Chloro-phenyl)-1H-pyrazol-4-yl]-pyrimidin-2-yl}-[4-(2-dimethyl-amino-ethoxy)-phenyl]-amine]: the values for the pIC50 at EGF-R (HER-1), on VEGF Receptor (KDR) and on ErbB-2 (HER-2) were 7.66, 7.68 and 7.72, respectively.
